# Results from patent US20240298601A1, “SESAME PLANTS RESISTANT TO ACETOLACTATE SYNTHASE-INHIBITING HERBICIDES, COMPOSITIONS AND METHODS FOR PRODUCING SAME” (Yissum Research Development Company of The Hebrew …, priority 2021, published 2024).
# Columns and labels:
# SiRM plants [1] = assay: Roots development under increasing dosages of Imazapic; type: in vivo, Sesamum indicum; conditions: pre-emergence; 24, 48, 96 and 192 g a.i. ha^−1; sandy soil; 14 DAT
# [2] = test system: resistant plants of the invention (SiRM); assay: 2021 field trial, Imazapic pre-emergence, sesame performance; type: in vivo, Sesamum indicum; conditions: pre-emergence Imazapic 48 g a.i. ha^−1
# Description: (§1) An additional field experiment was conducted during the summer of 2021 at the Experimental Farm of the Hebrew University of Jerusalem, Rehovot, Israel. A split-plot random block design with six replicates was applied. Treatments included: weed-free plots (i.e., manual weeding), untreated control (i.e., herbicide-free treatment) and application of Imazapic (48 g a.i. ha^−1) pre-germination. The plot size was 3.6 m×0.8 m (10 cm between plants) with two rows per plot. To evaluate the efficacy of weed control, two weeds were sown on the sesame sowing lines (Amaranthus Palmeri, 500 seeds per plot, and Abutilon Theophrastus, 70 seeds per plot). Phenological characterization was conducted during the growing season for the flowering date, the number of brunches per plant and the height to the first capsule. At the end of the growing season, the number of weeds per plot was counted and weeds were harvested for dry weight measurements. Sesame plants were harvested 1 m from the middle of the plot, samples were threshed using a laboratory thresher (Wintersteiger AG LD 350, Austria), and after sifting, the seeds were weighed to obtain seed yield.
# [3] = test system: wild type (S-416) sesame plants; assay: Herbicides dose-response assay (post-emergence, pots), wild type; type: in vivo, Sesamum indicum
# SiRM plants [4] = assay: Field observation after Imazapic recommended dose, SiRM; type: in vivo, Sesamum indicum; conditions: Imazapic 48 g a.i. h^−1
# WT plants [5] = assay: Imazapic pre-emergence pot experiment, WT; type: in vivo, Sesamum indicum
# WT plants [6] = assay: Field observation after Imazapic recommended dose, WT; type: in vivo, Sesamum indicum; conditions: Imazapic 48 g a.i. h^−1
# SiRM plants [7] = conditions: pre-emergence
# Abutilon Theophrastus = assay: 2021 field trial, Imazapic pre-emergence, weed control; type: in vivo; conditions: pre-emergence Imazapic 48 g a.i. ha^−1; field 2021
# Description: as §1
# Amaranthus palmeri = assay: as above; type: in vivo; conditions: pre-emergence Imazapic 48 g a.i. ha^−1; field 2021
# Description: as §1
# [8] = test system: SiRM plants (mutant SiALS Ala188Val)
compound,measurement,setting,value
"Cc1cnc(C2=NC(C)(C(C)C)C(=O)N2)c(C(=O)O)c1 (centres unmarked) [Imazapic, 5-methyl-2-(4-methyl-5-oxo-4-propan-2-yl-1H-imidazol-2-yl) pyridine-3-carboxylic acid]","root volume, SiRM",SiRM plants [1],didn't show any significant differences in root volume
same,height to the first capsule,[2],reduced height to the first capsule
same,effect on growth of the resistant plants,[2]; compared with weed-free control,no deleterious effects
same,reduction in growth of WT,"[3]; at 6 g a.i. h^−1, P=0.0055",18%
same,ED50 WT,"[3]; herbicide rate reducing plant growth (shoot DW) by 50%, 16 DAT, sprayed at two true leaves, n=5",236 g a.i. ha^−1
same,state of SiRM plants in the field,SiRM plants [4],only slightly affected and showed a five-day delay in shoot development and flowering time
same,development of WT plants,WT plants [5]; 144 g a.i. h^−1,fully controlled and did not develop beyond the growth of the cotyledons
same,"canopy coverage, WT","WT plants [5]; 144 g a.i. h^−1, 14 days after sowing, control 2.23, P=0.0008",0.27 % of coverage
same,"root length, WT","WT plants [5]; 144 g a.i. h^−1, control 82",5 mm
same,state of WT plants in the field,WT plants [6],dead already 10 DAT
same,"survival rate, SiRM","SiRM plants [7]; 48, 96 and 144 g a.i. h^−1, clay soil",100%
same,development of SiRM plants,SiRM plants [7]; 144 g a.i. h^−1,developed normally without any visual differences compared to the untreated control
same,"canopy coverage, SiRM","SiRM plants [7]; 144 g a.i. h^−1, 14 days after sowing",maintained similar values
same,"root length, SiRM","SiRM plants [7]; 144 g a.i. h^−1, control 72, P=0.106",85 mm
same,control of Abutilon,Abutilon Theophrastus,didn't develop beyond the cotyledons
same,control of A. Palmeri,Amaranthus palmeri,didn't emerge (full-control)
same,rate at which SiRM exhibited severe damage symptoms,[8]; 16X,768 g a.i. h^−1
same,ED50 SiRM,"[8]; herbicide rate reducing plant growth (shoot DW) by 50%, 16 DAT, n=5, calculated from fitted curve, for Imazamox above the tested rates",563 g a.i. ha^−1
same,dose up to which SiRM plants were not affected,[8]; post-emergence dose-response,≤ 96 g a.i. h^−1
same,RI (resistance index),[8]; resistance/susceptible ratio of the ED50 (SiRM vs WT),2.4
